Values after ≈ are worked out from the molar mass of the structure shown. Where two headings read alike, the source gives them in different places.
Assays:
[1] = system: Mycobacterium tuberculosis H37Rv (ATCC 27294); experiment: Antitubercular REMA (Resazurin Microtiter Assay); format: cell-based; conditions: Mycobacterium tuberculosis, 168 h, read-out: Mt MIC
[2] = system: A549 (human lung adenocarcinoma epithelial cell line, ATCC CCL-185); experiment: Cytotoxicity on lung cells (resazurin), A549; format: cell-based; conditions: 24 h incubation
[3] = DPPH radical scavenging ability; conditions: at 1600, 800, 400, and 200 µM; DPPH 100 μM, 30 min, 25 °C
Source text: The low selectivity of the cinnamylideneacetophenones 3 and 4 can be correlated with their phenolic nature. Studies report the ability of phenolic compounds to act on widespread radical processes shared by eukaryotic and prokaryotic cells. We hypothesized this behavior may be responsible by simultaneous activity toward bacteria and pulmonary cells. Therefore, we evaluated the radical scavenging ability of 3 and 4 using DPPH (2,2-diphenyl-1-picrylhydrazyl) protocol. […] Altogether, low selectivity of 3 and 4 cannot be strongly related to radical processes. Quercetin and gallic acid were used as positive controls due to their phenolic nature and potent radical scavenging ability.
Radical scavenging activity of compounds 3 and 4 was determined using 2,2-diphenyl-1-picrylhydrazyl (DPPH). Aliquots of 10 µL of 3, 4, and positive controls (quercetin and gallic acid) at concentrations 1600, 800, 400, and 200 μM (in EtOH) were individually added in 190 µL DPPH (100 μM). The mixtures were incubated in the dark at 25 °C for 30 min. Remaining DPPH was determined spectroscopically at 490 nm by blanking against absolute ethanol. Radical scavenging ability was expressed by using mean values obtained from triplicates as the percentage of radicals reduced by calculating the following equation: DPPH scavenging % = [1 − (Asample/A) × 100], where A is test absorbance without sample (only EtOH and DPPH) and Asample is test absorbance with compounds.

[4] = Cytotoxicity on lung cells (resazurin), MRC-5; conditions: human, MRC-5 cells (lung fibroblast cell line, ATCC CCL-171)
[5] = system: MRC-5 (human lung fibroblast cell line, ATCC CCL-171); experiment: Cytotoxicity on lung cells (resazurin), MRC-5; conditions: Homo sapiens, MRC5, read-out: IC50 on pulmonary cells
[6] = system: Escherichia coli (ATCC 10536); experiment: Antibacterial broth microdilution (MIC), E. coli; conditions: ATCC10536, 24 h, read-out: Ec MIC
[7] = system: Staphylococcus aureus (ATCC 14458); experiment: Antibacterial broth microdilution (MIC/MBC), S. aureus; conditions: for MIC: ATCC14458, 24 h
[8] = system: Streptococcus mutans (ATCC 25175); experiment: Antibacterial broth microdilution (MIC/MBC), S. mutans; conditions: for MIC: ATCC25175, 24 h; for MBC: ATCC25175, read-out: Sm MBC
[9] = system: Pseudomonas aeruginosa (ATCC 15442); experiment: Antibacterial broth microdilution (MIC), P. aeruginosa; conditions: ATCC15442, 24 h, read-out: Pa MIC
[10] = Partition coefficient log Po/w by HPLC-PDA (OECD method); conditions: n-octanol/water (from HPLC retention on a C-18 column)
[11] = system: Streptococcus sanguinis (ATCC 10557); experiment: Antibacterial broth microdilution (MIC/MBC), S. sanguinis; conditions: for MIC: ATCC10557, 24 h; for MBC: ATCC10557, read-out: Ss MBC
[12] = physchem
[13] = in vitro; conditions: human
[14] = ATCC14458, read-out: MIC and MBC values

SMILES	IC50 [2]	percentages of DPPH scavenging ability [3]	IC50 at 24 h [4]	IC50 [5]	MIC [6]	MBC [7, 14]	MBC ([7]; ATCC14458, read-out: Sa MBC)	MBC [8]	MIC [9]	MBC [11]	further results
O=C(/C=C/C=C/c1ccccc1)c1cccc(O)c1 [Compound 3, (2E,4E)-1-(3-hydroxyphenyl)-5-phenylpenta-2,4-dien-1-one]	96.7 µM	below 8%	46.3 µM	46.3 to 96.7 µM	> 500 µM	77.9 to 312 µM (≈ 19.5 to 78.1 µg/mL)	156 µM (≈ 39 µg/mL)	156 µM (≈ 39 µg/mL)	> 500 µM	156 µM (≈ 39 µg/mL)	MIC ([1]; M. tuberculosis H37Rv, REMA, 7 days, lowest concentration giving 90% inhibition of growth): 88.8 µM (≈ 22.2 µg/mL); MIC ([7]; read-out: Sa MIC, Staphylococcus aureus, broth microdilution, 24 h, tested 3.9 to 500 µM): 77.9 µM (≈ 19.5 µg/mL); MIC ([8]; read-out: Sm MIC, Streptococcus mutans, broth microdilution, 24 h, tested 3.9 to 500 µM): 77.9 µM (≈ 19.5 µg/mL); chromatographic logP [10]: 2.7; MIC ([11]; read-out: Ss MIC, Streptococcus sanguinis, broth microdilution, 24 h, tested 3.9 to 500 µM): 77.9 µM (≈ 19.5 µg/mL)
O=C(/C=C/C=C/c1ccccc1)c1ccc(O)cc1 [Compound 4, (2E,4E)-1-(4-hydroxyphenyl)-5-phenylpenta-2,4-dien-1-one]	77.5 µM	below 8%	–	46.3 to 96.7 µM	> 500 µM	77.9 to 312 µM (≈ 19.5 to 78.1 µg/mL)	77.9 µM (≈ 19.5 µg/mL)	312 µM (≈ 78.1 µg/mL)	> 500 µM	312 µM (≈ 78.1 µg/mL)	MIC [1]: 81.9 µM (≈ 20.5 µg/mL); chromatographic logP [12]: 2.6; IC50 [13]: 53.1 µM; MIC ([7]; read-out: Sa MIC): 77.9 µM (≈ 19.5 µg/mL); MIC ([8]; read-out: Sm MIC): 156 µM (≈ 39 µg/mL); MIC ([11]; read-out: Ss MIC): 156 µM (≈ 39 µg/mL)
COc1cccc2c1C(=O)c1c(O)c3c(c(O)c1C2=O)C[C@@](O)(C(=O)CO)C[C@@H]3O[C@H]1C[C@H](N)[C@H](O)[C@H](C)O1 [doxorubicin, reference compound]	1.8 µM	–	0.7 µM	–	–	–	–	–	–	–	–
